Experimental data: ChEMBL document CHEMBL1148615, “3-Amino-1,4,5,6-tetrahydropyrrolo[3,4-c]pyrazoles: a new class of CDK2 inhibitors” (Bioorg Med Chem Lett, 2006)
In brackets after ≈: the same amount, converted by molar mass. Activity calls are given as the source filed them. The rule behind the calls is not given here.

Experiments:
Aurora kinase A = molecular target: T1, Aurora kinase A (Homo sapiens, UniProt O14965); assay: Inhibitory activity against Aurora A kinase
T1 sequence (O14965 whole entry): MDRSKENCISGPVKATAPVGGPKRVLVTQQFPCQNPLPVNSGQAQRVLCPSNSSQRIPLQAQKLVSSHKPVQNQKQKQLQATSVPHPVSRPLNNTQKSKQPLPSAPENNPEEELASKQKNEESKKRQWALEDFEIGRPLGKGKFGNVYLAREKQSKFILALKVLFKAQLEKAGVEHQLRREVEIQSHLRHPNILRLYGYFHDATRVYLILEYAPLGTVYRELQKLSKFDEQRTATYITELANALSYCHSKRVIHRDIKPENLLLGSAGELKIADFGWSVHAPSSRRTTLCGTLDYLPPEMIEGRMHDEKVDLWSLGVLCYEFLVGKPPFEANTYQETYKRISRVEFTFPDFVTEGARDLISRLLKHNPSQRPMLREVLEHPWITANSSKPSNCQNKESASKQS

[1] = molecular target: Cyclin-dependent kinase 2/cyclin A (Homo sapiens, UniProt P24941); assay: Inhibitory activity against CDK2/Cyclin A; format: protein-complex assay
[2] = Solubility in buffer; format: physicochemical
[3] = Plasma protein binding; format: ADME, cell-free; conditions: human, read-out: PPB (converted)
HT-29 [4] = assay: Antiproliferative activity against HT29 cells; format: functional, cell-based; conditions: Homo sapiens
HCT-116 = assay: Antiproliferative activity against HCT116 cells; format: functional, cell-based; conditions: Homo sapiens
HT-29 [5] = assay: Incorporation of BrdU in HT29 cells; format: functional, cell-based; conditions: Homo sapiens
A2780 = assay: Antiproliferative activity against A2780 cells; format: functional, cell-based; conditions: Homo sapiens
[6] = molecular target: Cyclin-dependent kinase 4/cyclin D1 (Homo sapiens, UniProt P11802); assay: Inhibitory activity against CDK4/Cyclin D1; format: protein-complex assay
[7] = molecular target: T2, Cyclin-dependent kinase 2/cyclin A (Homo sapiens) (UniProt P24941+P20248+P78396); assay: Inhibition of hyperphosphorylation of pRb by CDK2/cyclin A at 3 uM; format: functional
[8] = molecular target: Cyclin-dependent kinase 2/cyclin E (Homo sapiens, UniProt P24941); assay: Inhibitory activity against CDK2/Cyclin E; format: protein-complex assay
HT-29 [9] = assay: Cell cycle arrest in HT29 cells by accumulation at G1/S phase; format: functional, cell-based; conditions: Homo sapiens
[10] = molecular target: Cyclin-dependent kinase 5/CDK5 activator 1 (Homo sapiens, UniProt Q00535); assay: Inhibitory activity against CDK5/p25; format: protein-complex assay
[11] = molecular target: Glycogen synthase kinase-3 beta (Homo sapiens, UniProt P49841); assay: Inhibitory activity against GSK3-beta
[12] = molecular target: Mitogen-activated protein kinase 1 (Homo sapiens, UniProt P28482); assay: Inhibitory activity against p42MAPK
Cytochrome P450 3A4 = Cytochrome P450 3A4 (Homo sapiens, UniProt P08684); assay: Metabolic stability in presence of CYP3A4; format: ADME
[13] = molecular target: Cyclin-dependent kinase 1/cyclin B (Homo sapiens, UniProt P06493); assay: Inhibitory activity against CDK1/Cyclin B; format: protein-complex assay
[14] = molecular target: T2, Cyclin-dependent kinase 2/cyclin A (Homo sapiens); assay: Inhibition of hyperphosphorylation of pRb by CDK2/cyclin A at 1 uM; format: functional

Glycogen synthase kinase-3 beta, sequence (P49841 whole entry): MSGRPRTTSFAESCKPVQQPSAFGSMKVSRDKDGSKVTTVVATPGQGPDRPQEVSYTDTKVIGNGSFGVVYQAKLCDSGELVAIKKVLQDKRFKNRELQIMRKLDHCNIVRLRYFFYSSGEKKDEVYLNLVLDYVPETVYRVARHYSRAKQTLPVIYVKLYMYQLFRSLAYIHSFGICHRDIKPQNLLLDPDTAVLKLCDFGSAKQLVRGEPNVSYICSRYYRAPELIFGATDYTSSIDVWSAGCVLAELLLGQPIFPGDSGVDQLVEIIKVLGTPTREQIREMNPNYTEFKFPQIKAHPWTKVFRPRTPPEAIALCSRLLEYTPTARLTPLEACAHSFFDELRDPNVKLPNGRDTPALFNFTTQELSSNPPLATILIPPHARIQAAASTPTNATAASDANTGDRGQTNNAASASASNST
Mitogen-activated protein kinase 1, sequence (P28482 whole entry): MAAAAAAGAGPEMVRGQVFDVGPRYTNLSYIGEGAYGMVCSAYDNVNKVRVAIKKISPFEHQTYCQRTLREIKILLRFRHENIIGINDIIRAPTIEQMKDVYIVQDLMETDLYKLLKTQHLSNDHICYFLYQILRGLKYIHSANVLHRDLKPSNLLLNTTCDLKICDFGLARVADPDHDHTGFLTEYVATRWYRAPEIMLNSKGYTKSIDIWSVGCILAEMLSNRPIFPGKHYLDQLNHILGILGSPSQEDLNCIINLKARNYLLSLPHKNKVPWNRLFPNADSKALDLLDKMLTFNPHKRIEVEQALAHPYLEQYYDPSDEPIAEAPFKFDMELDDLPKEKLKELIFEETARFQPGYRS
Cytochrome P450 3A4, sequence (P08684 whole entry): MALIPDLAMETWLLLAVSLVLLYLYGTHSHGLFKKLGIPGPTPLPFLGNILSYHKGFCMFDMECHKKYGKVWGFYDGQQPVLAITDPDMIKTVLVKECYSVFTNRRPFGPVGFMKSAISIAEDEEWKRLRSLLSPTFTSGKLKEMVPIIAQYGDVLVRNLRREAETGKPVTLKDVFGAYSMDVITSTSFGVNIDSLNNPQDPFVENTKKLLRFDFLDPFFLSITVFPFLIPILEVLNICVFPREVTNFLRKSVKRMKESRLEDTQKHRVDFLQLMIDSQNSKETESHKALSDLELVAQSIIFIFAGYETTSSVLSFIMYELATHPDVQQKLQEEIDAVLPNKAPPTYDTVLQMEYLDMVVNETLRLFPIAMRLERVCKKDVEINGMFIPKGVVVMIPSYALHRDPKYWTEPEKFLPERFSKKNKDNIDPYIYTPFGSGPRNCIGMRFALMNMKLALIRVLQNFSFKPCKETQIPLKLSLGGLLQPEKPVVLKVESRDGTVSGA
Cyclin-dependent kinase 4/cyclin D1, sequence (P11802 whole entry): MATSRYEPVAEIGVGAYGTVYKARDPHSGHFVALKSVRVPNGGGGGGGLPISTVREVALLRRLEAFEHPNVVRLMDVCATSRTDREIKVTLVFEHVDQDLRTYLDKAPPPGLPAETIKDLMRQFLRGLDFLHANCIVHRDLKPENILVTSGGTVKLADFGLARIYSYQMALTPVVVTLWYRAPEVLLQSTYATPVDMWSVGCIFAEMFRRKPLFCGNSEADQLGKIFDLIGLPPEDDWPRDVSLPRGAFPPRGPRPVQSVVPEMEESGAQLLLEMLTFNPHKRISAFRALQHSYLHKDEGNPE
Cyclin-dependent kinase 4/cyclin D1, sequence (P24385 whole entry, further chain): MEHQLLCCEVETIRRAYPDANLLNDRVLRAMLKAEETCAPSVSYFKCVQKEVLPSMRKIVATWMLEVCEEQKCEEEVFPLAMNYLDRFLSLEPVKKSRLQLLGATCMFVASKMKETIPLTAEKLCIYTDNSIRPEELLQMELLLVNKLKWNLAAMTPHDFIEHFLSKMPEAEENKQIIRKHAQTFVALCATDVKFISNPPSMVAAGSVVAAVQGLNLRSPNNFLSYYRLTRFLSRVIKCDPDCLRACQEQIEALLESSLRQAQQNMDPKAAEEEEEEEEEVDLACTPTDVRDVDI
Cyclin-dependent kinase 5/CDK5 activator 1, sequence (Q00535 whole entry): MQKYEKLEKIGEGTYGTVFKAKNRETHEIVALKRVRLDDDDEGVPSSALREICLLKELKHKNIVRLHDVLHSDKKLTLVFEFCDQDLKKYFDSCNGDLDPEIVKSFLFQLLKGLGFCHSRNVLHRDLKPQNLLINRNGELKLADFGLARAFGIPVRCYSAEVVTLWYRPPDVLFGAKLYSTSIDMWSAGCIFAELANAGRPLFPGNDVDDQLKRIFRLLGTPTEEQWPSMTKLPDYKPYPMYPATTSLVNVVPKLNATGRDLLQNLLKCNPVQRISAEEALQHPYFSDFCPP
Cyclin-dependent kinase 5/CDK5 activator 1, sequence (Q15078 whole entry, further chain): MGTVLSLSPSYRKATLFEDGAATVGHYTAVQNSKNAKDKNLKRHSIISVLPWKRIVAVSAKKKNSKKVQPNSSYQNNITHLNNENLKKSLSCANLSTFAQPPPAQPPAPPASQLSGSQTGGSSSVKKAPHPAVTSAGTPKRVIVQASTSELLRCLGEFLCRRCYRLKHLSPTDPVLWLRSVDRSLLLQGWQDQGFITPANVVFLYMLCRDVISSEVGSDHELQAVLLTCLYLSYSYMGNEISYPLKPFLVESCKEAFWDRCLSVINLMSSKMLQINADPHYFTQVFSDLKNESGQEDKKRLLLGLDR

Structure (SMILES) | IC50 (Aurora kinase A) | IC50 [1] | further results
CC(C)C(=O)N1Cc2n[nH]c(NC(=O)c3ccc4c(c3)OCO4)c2C1 | 160 nM | 430 nM | –
CCCCNC(=O)N1Cc2n[nH]c(NC(=O)[C@@H](C)c3ccc4ccccc4c3)c2C1 | > 10000 nM | 36 nM | solubility [2]: 27 µM (≈ 10.9 µg/mL); fraction unbound [3]: 0.01; IC50 (HT-29 [4]): 70 nM; IC50 (HCT-116): 120 nM; Activity (HT-29 [5]): inactive; IC50 (A2780): 130 nM; IC50 [6]: > 10000 nM; Activity [7]: Active; IC50 [8]: 90 nM; Activity (HT-29 [9]): Active; IC50 [10]: 150 nM; IC50 [11]: 50 nM; IC50 [12]: 380 nM; Stability (Cytochrome P450 3A4): 20%; IC50 [13]: 750 nM
CC(=O)N1Cc2n[nH]c(NC(=O)c3ccc(F)cc3)c2C1 | > 10000 nM | 2540 nM | –
CC(=O)N1Cc2n[nH]c(NC(=O)c3ccccc3)c2C1 | 3110 nM | 1150 nM | –
Cc1ccc(C(=O)Nc2[nH]nc3c2CN(C(=O)c2cccc4cccnc24)C3)cc1 | 440 nM | 1050 nM | –
CC(=O)N1Cc2n[nH]c(NC(=O)c3ccc4c(c3)OCO4)c2C1 | > 10000 nM | 2760 nM | –
CC(=O)N1Cc2n[nH]c(NC(=O)c3ccc(C#N)cc3)c2C1 | 8500 nM | 1590 nM | –
CC(=O)N1Cc2n[nH]c(NC(=O)c3cccc(F)c3)c2C1 | 4850 nM | 2110 nM | –
CCCCNC(=O)N1Cc2n[nH]c(NC(=O)Cc3ccc(N4CCCC4=O)cc3)c2C1 | > 10000 nM | 51 nM | IC50 (A2780): 8270 nM
NC(=O)N1Cc2n[nH]c(NC(=O)Cc3ccccc3)c2C1 | > 10000 nM | 30 nM | –
O=C(Cc1ccccc1)Nc1[nH]nc2c1CN(C(=O)Nc1ccccc1)C2 | > 10000 nM | 730 nM | –
COc1ccc(C(=O)Nc2[nH]nc3c2CN(C(C)=O)C3)cc1 | 660 nM | 1370 nM | –
CCCCNC(=O)N1Cc2n[nH]c(NC(=O)Cc3ccc(N4CCCC4)cc3)c2C1 | 4200 nM | 33 nM | solubility [2]: 39 µM (≈ 16 µg/mL); fraction unbound [3]: 0.05; IC50 (HT-29 [4]): 200 nM; IC50 (HCT-116): 900 nM; Activity (HT-29 [5]): inactive; IC50 (A2780): 940 nM; IC50 [6]: > 10000 nM; IC50 [8]: 91 nM; Activity (HT-29 [9]): Active; IC50 [11]: 300 nM; IC50 [12]: 280 nM; Activity [14]: Active; Stability (Cytochrome P450 3A4): 100%; IC50 [13]: 400 nM
CC(=O)N1Cc2n[nH]c(NC(=O)Cc3ccccc3)c2C1 | 2310 nM | 440 nM | –
CC(C)NC(=O)N1Cc2n[nH]c(NC(=O)c3ccc4c(c3)OCO4)c2C1 | 390 nM | 120 nM | –
CCCCNC(=O)N1Cc2n[nH]c(NC(=O)Cc3ccc4ccccc4c3)c2C1 | > 10000 nM | 45 nM | IC50 (A2780): 540 nM
CC(=O)N1Cc2n[nH]c(NC(=O)c3ccc(C)cc3)c2C1 | 2140 nM | 1080 nM | –
CCCCNC(=O)N1Cc2n[nH]c(NC(=O)Cc3ccccc3F)c2C1 | > 10000 nM | 51 nM | –
